Experimental data taken from PubChem BioAssay (NCI).
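Results reflect a 48-hour exposure of cells in 96-well plates to compound at five concentrations. TGI is the concentration that stops growth completely.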

Tests used:
Test in all cases: NCI tumour cell line growth inhibition, 48 h
DMS 273 small cell lung = test system: DMS 273 small cell lung
CAKI-1 renal = test system: CAKI-1 renal
OVCAR-4 ovarian = test system: OVCAR-4 ovarian
NCI-H226 lung = test system: NCI-H226 lung
NCI-H522 lung = test system: NCI-H522 lung
RXF 393 renal = test system: RXF 393 renal
TK-10 renal = test system: TK-10 renal
DLD-1 colon = test system: DLD-1 colon
SK-MEL-28 melanoma = test system: SK-MEL-28 melanoma
IGROV1 ovarian = test system: IGROV1 ovarian
MALME-3M melanoma = test system: MALME-3M melanoma
HCT-116 colon = test system: HCT-116 colon
HCT-15 colon = test system: HCT-15 colon
LOX IMVI melanoma = test system: LOX IMVI melanoma
A549 NSCLC = test system: A549 NSCLC
U251 CNS = test system: U251 CNS
OVCAR-3 ovarian = test system: OVCAR-3 ovarian
COLO 205 colon = test system: COLO 205 colon
A498 renal = test system: A498 renal
RXF-631 renal = test system: RXF-631 renal
CCRF-CEM leukemia = test system: CCRF-CEM leukemia
SF-295 CNS = test system: SF-295 CNS
DMS 114 small cell lung = test system: DMS 114 small cell lung
XF 498 CNS = test system: XF 498 CNS
OVCAR-8 ovarian = test system: OVCAR-8 ovarian
NCI-H460 lung = test system: NCI-H460 lung
HOP-62 NSCLC = test system: HOP-62 NSCLC
SW-620 colon = test system: SW-620 colon
HT29 colon = test system: HT29 colon
ACHN renal = test system: ACHN renal
SK-MEL-2 melanoma = test system: SK-MEL-2 melanoma
SR leukemia = test system: SR leukemia
M14 melanoma = test system: M14 melanoma
KM12 colon = test system: KM12 colon
HL-60(TB) leukemia = test system: HL-60(TB) leukemia
NCI-H23 lung = test system: NCI-H23 lung
UACC-257 melanoma = test system: UACC-257 melanoma
SN12C renal = test system: SN12C renal
SF-539 CNS = test system: SF-539 CNS
SNB-75 CNS = test system: SNB-75 CNS
OVCAR-5 ovarian = test system: OVCAR-5 ovarian
LXFL 529 NSCLC = test system: LXFL 529 NSCLC
K-562 leukemia = test system: K-562 leukemia
RPMI-8226 leukemia = test system: RPMI-8226 leukemia
HOP-18 NSCLC = test system: HOP-18 NSCLC
SNB-78 CNS = test system: SNB-78 CNS
SF-268 CNS = test system: SF-268 CNS
786-0 renal = test system: 786-0 renal
SK-MEL-5 melanoma = test system: SK-MEL-5 melanoma
SNB-19 CNS = test system: SNB-19 CNS
SK-OV-3 ovarian = test system: SK-OV-3 ovarian
MOLT-4 leukemia = test system: MOLT-4 leukemia
HCC-2998 colon = test system: HCC-2998 colon
HOP-92 NSCLC = test system: HOP-92 NSCLC
UO-31 renal = test system: UO-31 renal
EKVX NSCLC = test system: EKVX NSCLC
KM20L2 colon = test system: KM20L2 colon
UACC-62 melanoma = test system: UACC-62 melanoma
M19-MEL melanoma = test system: M19-MEL melanoma

Cc1c(C(=O)C/C(=N/NC(=O)c2ccccc2)C(=O)Nc2ccc(Cl)cc2)[n+](=O)c2ccccc2n1[O-]
TGI (DMS 273 small cell lung): > 100 µM | TGI (CAKI-1 renal): > 100 µM | TGI (OVCAR-4 ovarian): > 100 µM | TGI (NCI-H226 lung): > 100 µM | TGI (NCI-H522 lung): > 100 µM | TGI (RXF 393 renal): > 100 µM | TGI (TK-10 renal): > 100 µM | TGI (DLD-1 colon): > 100 µM | TGI (SK-MEL-28 melanoma): > 100 µM | TGI (IGROV1 ovarian): > 100 µM | TGI (MALME-3M melanoma): > 100 µM | TGI (HCT-116 colon): > 100 µM | TGI (HCT-15 colon): > 100 µM | TGI (LOX IMVI melanoma): > 100 µM | TGI (A549 NSCLC): > 100 µM | TGI (U251 CNS): > 100 µM | TGI (OVCAR-3 ovarian): > 100 µM | TGI (COLO 205 colon): > 100 µM | TGI (A498 renal): > 100 µM | TGI (RXF-631 renal): > 100 µM | TGI (CCRF-CEM leukemia): 74.4 µM | TGI (SF-295 CNS): > 100 µM | TGI (DMS 114 small cell lung): > 100 µM | TGI (XF 498 CNS): > 100 µM | TGI (OVCAR-8 ovarian): > 100 µM | TGI (NCI-H460 lung): > 100 µM | TGI (HOP-62 NSCLC): > 100 µM | TGI (SW-620 colon): > 100 µM | TGI (HT29 colon): > 100 µM | TGI (ACHN renal): > 100 µM | TGI (SK-MEL-2 melanoma): > 100 µM | TGI (SR leukemia): > 100 µM | TGI (M14 melanoma): > 100 µM | TGI (KM12 colon): > 100 µM | TGI (HL-60(TB) leukemia): 56.4 µM | TGI (NCI-H23 lung): 92.6 µM | TGI (UACC-257 melanoma): > 100 µM | TGI (SN12C renal): > 100 µM | TGI (SF-539 CNS): > 100 µM | TGI (SNB-75 CNS): > 100 µM | TGI (OVCAR-5 ovarian): > 100 µM | TGI (LXFL 529 NSCLC): > 100 µM | TGI (K-562 leukemia): > 100 µM | TGI (RPMI-8226 leukemia): > 100 µM | TGI (HOP-18 NSCLC): > 100 µM | TGI (SNB-78 CNS): > 100 µM | TGI (SF-268 CNS): > 100 µM | TGI (786-0 renal): > 100 µM | TGI (SK-MEL-5 melanoma): > 100 µM | TGI (SNB-19 CNS): > 100 µM | TGI (SK-OV-3 ovarian): > 100 µM | TGI (MOLT-4 leukemia): > 100 µM

C/C(CC(=O)Nc1cccc(Cl)c1C)=N\NC(N)=S
TGI (HCC-2998 colon): > 100 µM | TGI (NCI-H226 lung): > 100 µM | TGI (NCI-H522 lung): > 100 µM | TGI (RXF 393 renal): > 100 µM | TGI (TK-10 renal): > 100 µM | TGI (DLD-1 colon): > 100 µM | TGI (SK-MEL-28 melanoma): > 100 µM | TGI (IGROV1 ovarian): > 100 µM | TGI (MALME-3M melanoma): > 100 µM | TGI (HCT-116 colon): > 100 µM | TGI (LOX IMVI melanoma): > 100 µM | TGI (A549 NSCLC): > 100 µM | TGI (U251 CNS): > 100 µM | TGI (OVCAR-3 ovarian): > 100 µM | TGI (COLO 205 colon): > 100 µM | TGI (HOP-92 NSCLC): > 100 µM | TGI (UO-31 renal): > 100 µM | TGI (A498 renal): > 100 µM | TGI (EKVX NSCLC): > 100 µM | TGI (RXF-631 renal): > 100 µM | TGI (CCRF-CEM leukemia): > 100 µM | TGI (SF-295 CNS): > 100 µM | TGI (KM20L2 colon): > 100 µM | TGI (XF 498 CNS): > 100 µM | TGI (OVCAR-8 ovarian): > 100 µM | TGI (NCI-H460 lung): > 100 µM | TGI (HOP-62 NSCLC): > 100 µM | TGI (SW-620 colon): > 100 µM | TGI (HT29 colon): > 100 µM | TGI (UACC-62 melanoma): > 100 µM | TGI (SK-MEL-2 melanoma): > 100 µM | TGI (M14 melanoma): > 100 µM | TGI (KM12 colon): > 100 µM | TGI (HL-60(TB) leukemia): > 100 µM | TGI (NCI-H23 lung): > 100 µM | TGI (UACC-257 melanoma): > 100 µM | TGI (M19-MEL melanoma): > 100 µM | TGI (SF-539 CNS): > 100 µM | TGI (SNB-75 CNS): > 100 µM | TGI (OVCAR-5 ovarian): > 100 µM | TGI (LXFL 529 NSCLC): > 100 µM | TGI (K-562 leukemia): > 100 µM | TGI (RPMI-8226 leukemia): > 100 µM | TGI (SNB-78 CNS): > 100 µM | TGI (SF-268 CNS): > 100 µM | TGI (786-0 renal): > 100 µM | TGI (SK-MEL-5 melanoma): > 100 µM | TGI (SK-OV-3 ovarian): > 100 µM | TGI (MOLT-4 leukemia): > 100 µM
